Measured values: ChEMBL document CHEMBL6083263, “The Discovery of MORF-627, a Highly Selective Conformationally-Biased Zwitterionic Integrin αvβ6 Inhibitor for Fibrosis” (J Med Chem, 2024)
The source made the active and inactive calls. The calls are words filed in the database; no cut-off is given here.

Assays:
Mus musculus [1] = assay: Antifibrotic activity against BLM-induced po dosed C57BL/6J mouse acute lung fibrosis model assessed as reduction in modified ashcroft score administered twice daily for 14 days; assay type: functional; design: scale not given: the % may be the effect or the level left; settings: time 14 day
[2] = AUCinfinity in C57BL/6 mouse at 1 mg/kg, iv measured upto 24 hrs by LC/MS-MS analysis; assay type: ADME, organism-based; settings: in vivo
[3] = Fraction of compound absorbed into portal vein (FaFg) in C57BL/6 mouse at 30 mg/kg, po measured upto 24 hrs by LC/MS-MS analysis; assay type: ADME, organism-based; settings: in vivo
[4] = Oral bioavailability in C57BL/6 mouse at 30 mg/kg measured upto 24 hrs by LC/MS-MS analysis; assay type: ADME, organism-based; settings: in vivo
[5] = Oral bioavailability in Sprague-Dawley rat at 30 mg/kg measured upto 24 hrs by LC/MS-MS analysis; assay type: ADME, organism-based; settings: in vivo
[6] = Volume of distribution at steady state in cynomolgus monkey at 1 mg/kg, iv measured upto 24 hrs by LC/MS-MS analysis; assay type: ADME, organism-based, Macaca fascicularis; settings: in vivo, read-out: Vdss
Mus musculus [7] = assay: Antifibrotic activity against BLM-induced C57BL/6J mouse acute lung fibrosis model assessed as reduction in picrosirius red positive area at 1 to 10 mg/kg, po administered twice daily for 14 days; assay type: functional, organism-based; settings: dose 1-10 mg/kg, time 14.0 day
[8] = Oral bioavailability in Sprague-Dawley rat at 10 mg/kg measured upto 24 hrs by LC/MS-MS analysis; assay type: ADME, organism-based; settings: in vivo
Mus musculus [9] = assay: Antifibrotic activity against BLM-induced C57BL/6J mouse acute lung fibrosis model assessed as reduction in total collagen deposition at 3 mg/kg, po administered twice daily for 14 days; assay type: functional, organism-based; settings: time 14.0 day
Integrin alpha-V/beta-6 [10] = biological target: T1, Integrin alpha-V/beta-6 (Homo sapiens, UniProt P06756+P18564); assay: Inhibition of Integrin alphaVbeta6 (unknown origin) mediated TGF-beta1 activation expressed in primary epithelial cells cocultured with idiopathic pulmonary fibroblast cells assessed as downregulation of FN mRNA expression measured after 72 hrs by qPCR assay; assay type: cell-based, Epithelial cell
T1 sequence (P06756 31-889 limits assumed): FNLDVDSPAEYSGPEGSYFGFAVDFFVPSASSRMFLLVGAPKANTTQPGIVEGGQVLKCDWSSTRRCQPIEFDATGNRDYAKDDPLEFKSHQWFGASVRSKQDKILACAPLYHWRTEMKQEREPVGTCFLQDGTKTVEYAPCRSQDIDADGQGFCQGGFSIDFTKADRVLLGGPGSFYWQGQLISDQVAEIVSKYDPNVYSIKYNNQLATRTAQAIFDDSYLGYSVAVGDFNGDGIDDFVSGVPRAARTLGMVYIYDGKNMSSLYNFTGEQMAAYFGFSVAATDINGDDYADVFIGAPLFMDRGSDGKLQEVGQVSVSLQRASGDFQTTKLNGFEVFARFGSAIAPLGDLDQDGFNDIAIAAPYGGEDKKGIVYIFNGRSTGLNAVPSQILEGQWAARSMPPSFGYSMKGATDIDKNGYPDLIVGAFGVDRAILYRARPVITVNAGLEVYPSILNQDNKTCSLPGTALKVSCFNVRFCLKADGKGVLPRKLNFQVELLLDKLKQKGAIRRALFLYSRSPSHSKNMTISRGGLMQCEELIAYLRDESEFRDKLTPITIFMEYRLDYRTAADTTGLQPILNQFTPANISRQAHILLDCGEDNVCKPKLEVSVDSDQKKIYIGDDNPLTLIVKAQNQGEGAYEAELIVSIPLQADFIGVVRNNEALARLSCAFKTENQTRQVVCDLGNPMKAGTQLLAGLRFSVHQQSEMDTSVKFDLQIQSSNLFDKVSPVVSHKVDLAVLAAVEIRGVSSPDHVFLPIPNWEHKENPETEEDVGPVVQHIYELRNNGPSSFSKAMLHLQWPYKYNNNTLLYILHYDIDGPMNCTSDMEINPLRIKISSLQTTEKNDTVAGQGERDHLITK
T1 sequence (P06756 891-1048 limits assumed): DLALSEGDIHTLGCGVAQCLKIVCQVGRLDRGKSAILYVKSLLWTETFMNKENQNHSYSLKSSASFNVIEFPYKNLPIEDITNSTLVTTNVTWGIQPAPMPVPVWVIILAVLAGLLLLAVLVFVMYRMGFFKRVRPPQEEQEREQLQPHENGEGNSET
T1 sequence (P18564 22-788 limits assumed): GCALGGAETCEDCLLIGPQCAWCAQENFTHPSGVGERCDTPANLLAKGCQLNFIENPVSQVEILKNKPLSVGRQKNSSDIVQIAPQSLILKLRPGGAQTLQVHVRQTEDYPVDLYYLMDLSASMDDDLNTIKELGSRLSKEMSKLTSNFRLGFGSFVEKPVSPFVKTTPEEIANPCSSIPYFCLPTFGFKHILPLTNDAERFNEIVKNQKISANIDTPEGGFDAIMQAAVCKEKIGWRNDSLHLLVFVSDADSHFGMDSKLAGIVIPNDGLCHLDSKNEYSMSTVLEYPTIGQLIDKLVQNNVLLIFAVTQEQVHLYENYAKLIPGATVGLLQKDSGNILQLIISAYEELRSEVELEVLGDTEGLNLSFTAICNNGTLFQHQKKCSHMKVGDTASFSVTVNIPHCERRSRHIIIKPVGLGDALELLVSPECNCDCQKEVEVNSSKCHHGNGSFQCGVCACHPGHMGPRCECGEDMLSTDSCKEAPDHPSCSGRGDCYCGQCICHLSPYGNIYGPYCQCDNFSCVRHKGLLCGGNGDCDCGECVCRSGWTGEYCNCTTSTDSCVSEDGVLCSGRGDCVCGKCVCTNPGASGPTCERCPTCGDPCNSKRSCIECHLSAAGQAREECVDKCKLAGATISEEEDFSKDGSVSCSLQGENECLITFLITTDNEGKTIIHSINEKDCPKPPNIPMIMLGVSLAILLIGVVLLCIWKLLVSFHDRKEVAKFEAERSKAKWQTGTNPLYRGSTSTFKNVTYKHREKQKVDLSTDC

[11] = Half-life in C57BL/6 mouse at 30 mg/kg, po measured upto 24 hrs by LC/MS-MS analysis; assay type: ADME, organism-based; settings: in vivo
[12] = Half-life in Beagle dog at 1 mg/kg, iv measured upto 24 hrs by LC/MS-MS analysis; assay type: ADME, organism-based, Canis lupus familiaris; settings: in vivo
Integrin alpha-V/beta-6 [13] = biological target: T1, Integrin alpha-V/beta-6; assay: Displacement of fluorescein labeled GRGDLGRL from human Integrin alphaVbeta6 preincubated for 15 mins followed by fluorescein labeled GRGDLGRL addition and measured after 1 hr by fluorescence polarization assay; assay type: protein-complex assay
[14] = AUCinfinity in Sprague-Dawley rat at 30 mg/kg, po measured upto 24 hrs by LC/MS-MS analysis; assay type: ADME, organism-based; settings: in vivo
Mus musculus [15] = assay: Antifibrotic activity against BLM-induced C57BL/6J mouse acute lung fibrosis model assessed as reduction in collagen structure index at 3 mg/kg, po administered twice daily for 14 days; assay type: functional, organism-based; settings: time 14.0 day
[16] = AUCinfinity in cynomolgus monkey at 1 mg/kg, iv measured upto 24 hrs by LC/MS-MS analysis; assay type: ADME, organism-based, Macaca fascicularis; settings: in vivo
[17] = Volume of distribution at steady state in Beagle dog at 1 mg/kg, iv measured upto 24 hrs by LC/MS-MS analysis; assay type: ADME, organism-based, Canis lupus familiaris; settings: in vivo, read-out: Vdss
[18] = Tmax in Sprague-Dawley rat at 30 mg/kg, po measured upto 24 hrs by LC/MS-MS analysis; assay type: ADME, organism-based; settings: in vivo
[19] = Volume of distribution at steady state in C57BL/6 mouse at 1 mg/kg, iv measured upto 24 hrs by LC/MS-MS analysis; assay type: ADME, organism-based; settings: in vivo, read-out: Vdss
Integrin alpha-V/beta-6 [20] = biological target: T1, Integrin alpha-V/beta-6; assay: Inhibition of Integrin alphaVbeta6 (unknown origin) mediated TGF-beta1 activation expressed in primary epithelial cells cocultured with idiopathic pulmonary fibroblast cells assessed as downregulation of COL3A1 mRNA expression measured after 72 hrs by qPCR assay; assay type: cell-based, Epithelial cell
[21] = Half-life in Sprague-Dawley rat at 30 mg/kg, po measured upto 24 hrs by LC/MS-MS analysis; assay type: ADME, organism-based; settings: in vivo
[22] = AUCinfinity in Sprague-Dawley rat at 1 mg/kg, iv measured upto 24 hrs by LC/MS-MS analysis; assay type: ADME, organism-based; settings: in vivo
[23] = Clearance in Sprague-Dawley rat at 1 mg/kg, iv measured upto 24 hrs by LC/MS-MS analysis; assay type: ADME, organism-based; settings: in vivo
[24] = Octanol/water partition coefficient, logD of the compound; assay type: physicochemical
[25] = AUCinfinity in cynomolgus […] at 5 mg/kg, po measured upto 24 hrs by LC/MS-MS analysis; assay type: ADME, organism-based, Macaca fascicularis; settings: in vivo
[26] = Tmax in C57BL/6 mouse at 30 mg/kg, po measured upto 24 hrs by LC/MS-MS analysis; assay type: ADME, organism-based; settings: in vivo
[27] = Half-life in Sprague-Dawley rat at 1 mg/kg, iv measured upto 24 hrs by LC/MS-MS analysis; assay type: ADME, organism-based; settings: in vivo
[28] = Fraction of compound absorbed into portal vein (FaFg) in cynomolgus monkey at 30 mg/kg, po measured upto 24 hrs by LC/MS-MS analysis; assay type: ADME, organism-based, Macaca fascicularis; settings: in vivo
[29] = Oral bioavailability in cynomolgus […] at 5 mg/kg measured upto 24 hrs by LC/MS-MS analysis; assay type: ADME, organism-based, Macaca fascicularis; settings: in vivo
[30] = Cmax in Sprague-Dawley rat at 30 mg/kg, po measured upto 24 hrs by LC/MS-MS analysis; assay type: ADME, organism-based; settings: in vivo
[31] = AUCinfinity in Beagle dog at 1 mg/kg, iv measured upto 24 hrs by LC/MS-MS analysis; assay type: ADME, organism-based, Canis lupus familiaris; settings: in vivo
[32] = Clearance in cynomolgus monkey at 1 mg/kg, iv measured upto 24 hrs by LC/MS-MS analysis; assay type: ADME, organism-based, Macaca fascicularis; settings: in vivo
[33] = Volume of distribution at steady state in Sprague-Dawley rat at 1 mg/kg, iv measured upto 24 hrs by LC/MS-MS analysis; assay type: ADME, organism-based; settings: in vivo, read-out: Vdss
[34] = Fraction of compound absorbed into portal vein (FaFg) in Sprague-Dawley rat at 30 mg/kg, po measured upto 24 hrs by LC/MS-MS analysis; assay type: ADME, organism-based; settings: in vivo
[35] = Cmax in cynomolgus […] at 5 mg/kg, po measured upto 24 hrs by LC/MS-MS analysis; assay type: ADME, organism-based, Macaca fascicularis; settings: in vivo
[36] = Clearance in C57BL/6 mouse at 1 mg/kg, iv measured upto 24 hrs by LC/MS-MS analysis; assay type: ADME, organism-based; settings: in vivo
[37] = Half-life in C57BL/6 mouse at 1 mg/kg, iv measured upto 24 hrs by LC/MS-MS analysis; assay type: ADME, organism-based; settings: in vivo
[38] = Cmax in C57BL/6 mouse at 30 mg/kg, po measured upto 24 hrs by LC/MS-MS analysis; assay type: ADME, organism-based; settings: in vivo
[39] = AUCinfinity in C57BL/6 mouse at 30 mg/kg, po measured upto 24 hrs by LC/MS-MS analysis; assay type: ADME, organism-based; settings: in vivo
[40] = Half-life in cynomolgus […] at 5 mg/kg, po measured upto 24 hrs by LC/MS-MS analysis; assay type: ADME, organism-based, Macaca fascicularis; settings: in vivo
Integrin alpha-V/beta-6 [41] = biological target: T1, Integrin alpha-V/beta-6; assay: Inhibition of Integrin alphaVbeta6 (unknown origin) mediated TGF-beta1 activation expressed in primary epithelial cells cocultured with idiopathic pulmonary fibroblast cells assessed as downregulation of COL1A1 mRNA expression measured after 72 hrs by qPCR assay; assay type: cell-based, Epithelial cell
Integrin alpha-V/beta-8 = Integrin alpha-V/beta-8 (Homo sapiens, UniProt P06756+P26012); assay: Displacement of fluorescein labeled GRGDLGRL from human Integrin alphaVbeta8 preincubated for 15 mins followed by fluorescein labeled GRGDLGRL addition and measured after 1 hr by fluorescence polarization assay; assay type: protein-complex assay
Integrin alpha-V/beta-8, sequence (P06756 31-889 limits assumed): as the sequence (P06756 31-889 limits assumed) above
Integrin alpha-V/beta-8, sequence (P06756 891-1048 limits assumed): as the sequence (P06756 891-1048 limits assumed) above
Integrin alpha-V/beta-8, sequence (P26012 43-769 limits assumed): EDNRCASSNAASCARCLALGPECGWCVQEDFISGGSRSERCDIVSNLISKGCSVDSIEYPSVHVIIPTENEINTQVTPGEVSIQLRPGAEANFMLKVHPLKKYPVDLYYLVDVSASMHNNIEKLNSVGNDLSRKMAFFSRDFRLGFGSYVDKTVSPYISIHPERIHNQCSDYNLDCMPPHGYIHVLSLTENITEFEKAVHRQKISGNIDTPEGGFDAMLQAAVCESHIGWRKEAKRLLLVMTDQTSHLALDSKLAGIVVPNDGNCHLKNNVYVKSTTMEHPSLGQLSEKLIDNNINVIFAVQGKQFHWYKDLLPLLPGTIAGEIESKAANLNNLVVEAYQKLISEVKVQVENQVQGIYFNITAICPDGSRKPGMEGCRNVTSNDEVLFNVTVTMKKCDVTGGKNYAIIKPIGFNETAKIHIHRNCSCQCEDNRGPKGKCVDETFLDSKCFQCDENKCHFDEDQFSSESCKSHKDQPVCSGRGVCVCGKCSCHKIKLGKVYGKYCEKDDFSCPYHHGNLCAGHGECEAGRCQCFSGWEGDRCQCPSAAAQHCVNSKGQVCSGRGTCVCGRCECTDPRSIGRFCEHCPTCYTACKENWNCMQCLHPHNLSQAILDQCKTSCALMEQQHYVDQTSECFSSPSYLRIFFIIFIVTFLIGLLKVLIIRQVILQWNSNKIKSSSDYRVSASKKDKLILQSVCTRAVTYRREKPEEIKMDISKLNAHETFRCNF

[42] = Tmax in cynomolgus […] at 5 mg/kg, po measured upto 24 hrs by LC/MS-MS analysis; assay type: ADME, organism-based, Macaca fascicularis; settings: in vivo
Integrin alpha-V/beta-6 [43] = biological target: T1, Integrin alpha-V/beta-6; assay: Binding affinity to human Integrin alphaVbeta6 overexpressed in HEK293 cells incubated for 15 mins in presence of human serum by flow cytometry assay; assay type: cell-based
Mus musculus [44] = assay: Antifibrotic activity against BLM-induced po dosed C57BL/6J mouse acute lung fibrosis model assessed as reduction in pSMAD2 level administered twice daily for 3 days; assay type: functional, organism-based; settings: 72 h
[45] = Half-life in cynomolgus monkey at 1 mg/kg, iv measured upto 24 hrs by LC/MS-MS analysis; assay type: ADME, organism-based, Macaca fascicularis; settings: in vivo
Mus musculus [46] = assay: Antifibrotic activity against BLM-induced C57BL/6J mouse acute lung fibrosis model assessed as reduction in modified ashcroft score at 1 to 10 mg/kg, po administered twice daily for 14 days; assay type: functional; design: scale not given: the % may be the effect or the level left; settings: dose 1-10 mg/kg, time 14 day
Mus musculus [47] = assay: Antifibrotic activity against BLM-induced C57BL/6J mouse acute lung fibrosis model assessed as reduction in pSMAD2:total protein ratio at 0.1 to 100 mg/kg, po administered twice daily for 3 days; assay type: functional, organism-based; settings: dose 0.1-100 mg/kg, time 3.0 day
Mus musculus [48] = assay: Antifibrotic activity against BLM-induced C57BL/6J mouse acute lung fibrosis model assessed as reduction in collagen fiber density at 3 mg/kg, po administered twice daily for 14 days; assay type: functional, organism-based; settings: time 14.0 day
Integrin alpha-V/beta-6 [49] = biological target: T1, Integrin alpha-V/beta-6; assay: Inhibition of Integrin alphaVbeta6 (unknown origin) mediated TGF-beta1 activation expressed in HEK293 cells cocultured with MLEC cells expressing luciferase reporter; assay type: cell-based
Integrin alpha-V/beta-1 = Integrin alpha-V/beta-1 (Homo sapiens, UniProt P05556+P06756); assay: Displacement of fluorescein labeled ACRGDGWC from human Integrin alphaVbeta1 preincubated for 15 mins followed by fluorescein labeled ACRGDGWC addition and measured after 1 hr by fluorescence polarization assay; assay type: protein-complex assay
Integrin alpha-V/beta-1, sequence (P05556 21-798 limits assumed): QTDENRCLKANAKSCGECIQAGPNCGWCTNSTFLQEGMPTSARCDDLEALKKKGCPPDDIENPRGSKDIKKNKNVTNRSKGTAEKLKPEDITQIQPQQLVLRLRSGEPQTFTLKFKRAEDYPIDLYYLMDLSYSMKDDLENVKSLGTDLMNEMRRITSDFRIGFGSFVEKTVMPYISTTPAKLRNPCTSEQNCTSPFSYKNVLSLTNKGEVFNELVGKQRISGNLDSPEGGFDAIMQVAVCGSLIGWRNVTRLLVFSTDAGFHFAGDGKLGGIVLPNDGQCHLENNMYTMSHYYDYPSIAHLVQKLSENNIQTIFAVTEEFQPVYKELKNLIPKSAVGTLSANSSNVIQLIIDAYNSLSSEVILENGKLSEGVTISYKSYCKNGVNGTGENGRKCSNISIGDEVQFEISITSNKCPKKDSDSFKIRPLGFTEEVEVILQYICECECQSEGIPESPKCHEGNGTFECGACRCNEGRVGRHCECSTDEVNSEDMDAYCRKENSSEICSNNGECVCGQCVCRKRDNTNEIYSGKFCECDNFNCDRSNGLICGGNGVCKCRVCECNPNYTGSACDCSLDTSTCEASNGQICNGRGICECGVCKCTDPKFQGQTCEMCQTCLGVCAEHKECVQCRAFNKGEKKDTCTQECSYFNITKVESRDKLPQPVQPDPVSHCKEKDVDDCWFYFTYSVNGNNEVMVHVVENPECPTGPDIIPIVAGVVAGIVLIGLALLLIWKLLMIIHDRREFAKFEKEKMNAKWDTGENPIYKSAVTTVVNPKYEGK
Integrin alpha-V/beta-1, sequence (P06756 31-889 limits assumed): as the sequence (P06756 31-889 limits assumed) above
Integrin alpha-V/beta-1, sequence (P06756 891-1048 limits assumed): as the sequence (P06756 891-1048 limits assumed) above

## Cc1cccc(-c2[nH]c(C(C)(C)C)nc2-c2ccc3nccnc3c2)n1
Mus musculus [1]
  Activity: 37%

## O=C(O)[C@H](c1cc(F)ccc1[C@@H]1CCC2(CC2)CO1)N1CC[C@@H](OCCCCc2ccc3c(n2)NCCC3)C1
[2]
  AUC(0-inf): 940 ng·h/mL
[3]
  FaFg: 83%
[4]
  bioavailability: 66%
[5]
  bioavailability: 74%
[6]
  Vd: 2.45 L/kg
Mus musculus [7]
  Activity: Active; No Statistical Significant Activity
[8]
  bioavailability: 22%
Mus musculus [9]
  Activity: Active
Integrin alpha-V/beta-6 [10]
  IC50: 20.3 nM
[11]
  t1/2: 2.6 h
[12]
  half-life: 4.9 h
Integrin alpha-V/beta-6 [13]
  IC50: 1.1 nM
[14]
  AUC(0-inf): 14000 ng·h/mL
Mus musculus [15]
  Activity: Active
[16]
  AUC(0-inf): 1590 ng·h/mL
[17]
  Vd: 1.84 L/kg
[18]
  Tmax: 0.25 h
[19]
  Vd: 2.07 L/kg
Integrin alpha-V/beta-6 [20]
  IC50: 12.8 nM
[21]
  t1/2: 1.8 h
[22]
  AUC(0-inf): 610 ng·h/mL
[23]
  clearance: 28 mL/min/kg
[24]
  logD: 2.2
[25]
  AUC(0-inf): 1600 ng·h/mL
[26]
  Tmax: 0.25 h
[27]
  half-life: 1.9 h
[28]
  FaFg: 21%
[29]
  bioavailability: 16%
[30]
  Cmax: 14000 ng/mL
[31]
  AUC: 2970 ng·h/mL
[32]
  clearance: 10.5 mL/min/kg
[33]
  Vd: 3.1 L/kg
[34]
  FaFg: 123%
[35]
  Cmax: 540 ng/mL
[36]
  clearance: 18 mL/min/kg
[37]
  half-life: 1.9 h
[38]
  Cmax: 7600 ng/mL
[39]
  AUC(0-inf): 19000 ng·h/mL
[40]
  t1/2: 4.8 h
Integrin alpha-V/beta-6 [41]
  IC50: 1.8 nM
Integrin alpha-V/beta-8
  IC50: 330 nM
[42]
  Tmax: 1 h
Integrin alpha-V/beta-6 [43]
  IC50: 9.2 nM
Mus musculus [44]
  IC50: 8.3 nM
[45]
  half-life: 4.9 h
Mus musculus [46]
  Activity: 33%
Mus musculus [47]
  Activity: Active; Showed Significant Activity At 10 To 30 Mg/Kg
Mus musculus [48]
  Activity: Active
Integrin alpha-V/beta-6 [49]
  IC50: 2.63 nM
Integrin alpha-V/beta-1
  IC50: 490 nM
